This is an account of results in patent US9850216B2 (H. LEE MOFFITT CANCER CENTER AND RESEARCH INSTITUTE, INC., priority 2013, dated 2017).

Values joined by “and” are separate entries in the source; they are usually repeats but may differ in a detail not shown here. Identical values can stand only once. Like-named read-outs stand apart in the source and are kept apart here.

One data set relates to LNCaP cells. Put plainly: Cell proliferation, trypan blue exclusion, LNCaP. The note with it: 36 hrs, viable cells by trypan blue exclusion, read-out: IC50, inhibition of cell growth in LNCaP cells. It counts as cell-based, human. How it is done:
(§1) The number of viable cells was counted by trypan blue exclusion assay.
(§2) Three distinct human prostate cancer derived cell lines, LNCaP, LAPC4 and VCaP were either DMSO treated or treated with 1, 2.5, 5, 7.5 and 10 μM of inhibitors, AIM-100, (R)-9b and (S)-9b for 36 hrs and the number of viable cells were counted by trypan blue exclusion assay.
(§3) The ability of the ACK1 inhibitors to suppress proliferation of prostate cancer cell lines were also assessed. AIM-100, an ACK1 inhibitor, originally screened by Amgen was used as a control. […] Overall, it appears that ACK1 is needed for androgen-independent growth of prostate cancer cells.

The next data set deals with VCaP cells. Put plainly: Cell proliferation, trypan blue exclusion, VCaP. Type of data set: cell-based, human. Particulars: 36 hrs, viable cells by trypan blue exclusion, read-out: IC50, inhibition of cell growth in VCaP cells. How it is done: as §1, §2, §3
For data set [1], the system named is AR. Put plainly: AR protein levels in androgen-deprived prostate cancer cells, immunoblotting. The note with it: immunoblotting (FIG. 2). It counts as cell-based, human. How it is done: Transcriptional regulation of the AR gene itself is a paradigm that merits thorough investigation. […] Whether AR utilizes ACK1 to facilitate its transcriptional co-activator function is not known. […] Cells were also treated with ACK1-specific small molecule inhibitors, DZ1-067 or AIM-100.

Another data set deals with prostate xenograft tumor. The note with it: literature; cited from earlier work.
For data set [2], the target named is T1, ACK1 (Homo sapiens, UniProt Q07912). Put plainly: EGF-induced ACK1 autophosphorylation (Tyr284) in LAPC4 cells, immunoblotting. Type of data set: cell-based. Also on record: endogenous in cells; host or cells: LAPC4. The note with it: pretreated with compound, 5 μM (FIG. 8(a)). How it is done:
Inhibition of: LNCaP (FIG. 8(b)); LAPC4 (FIG. 8(c)), and VCaP (FIG. 8(d)) cell growth by AIM-100, (R)-9b, and (S)-9b. Inhibition of ACK1 autophosphorylation in LAPC4 cells treated 5 μM with (R)-9b and (S)-9b (FIG. 8(a)).
ACK1 is a tyrosine kinase that auto-phosphorylates at Tyr284, which is indicative of its kinase activation. To determine inhibitory potential of the compounds from library 9, prostate cancer derived cell line LAPC4 was treated with either EGF ligand alone or added to cells pretreated with the compounds, and equal amounts of cell lysates were subjected to immunoblotting. EGF (epidermal growth factor) ligand causes rapid activation of EGFR (epidermal growth factor receptor), which in turn lead to activation of the ACK1 kinase (FIG. 8(a), lane 2, top panel). […] Actin was used as control, which indicates equal loading of cell lysates (FIG. 8(a), lower panel).

In data set [3] the target is T1, ACK1. Particulars: literature; read-out: IC50, inhibition of ACK1 autophosphorylation in intact cells; cited from earlier work.
In data set [4] the test system is cell line which is dependent upon ACK1. The note with it: literature; read-out: IC50, growth of a cell line dependent upon ACK1; cited from earlier work.
For data set [5] the following is noted: attributed to oxidation of dithiolane ring and NMe2; literature; cited from earlier work.
Data set [6] addresses T1, ACK1. Put plainly: ACK1 ELISA: phosphorylation of AKT-derived peptide. It counts as biochemical. The note with it: 10 μM, Table 1, replicate values listed; for inhibition at 10 µM: read-out: % Inhibition at 10 μM (ELISA).
In data set [7] the target is T1, ACK1. Put plainly: 32P Hotspot assay (Reaction Biology), ACK1 IC50. It counts as biochemical. How it is done: (§4) 8 compounds were tested against […], ACK1, Src and ALK in various combinations. […] Reactions were carried out at 10 μM ATP.
Another data set has as its target ALK (Homo sapiens, UniProt Q9UM73). Put plainly: Kinase IC50 profiling, ALK. It counts as biochemical. The note with it: Table 4; 10-dose; 10 μM ATP; read-out: Compound IC50 (M), ALK. How it is done: as §4
A further data set deals with c-Src (Homo sapiens, UniProt P12931). Put plainly: Kinase IC50 profiling, c-Src. Type of data set: biochemical. Particulars: Table 3; 10-dose; 10 μM ATP; read-out: Compound IC50* (M): c-Src. How it is done: as §4
Data set [8] deals with AR. Put plainly: AR mRNA by real time PCR in androgen-deprived prostate cancer cells. It counts as cell-based, human. Particulars: overnight treatment (FIG. 3a, b). From the text: Total RNA was isolated followed by qPCR with AR primers. VCaP, *p=0.022; LNCaP, *p=0.042, **p=0.047. […] Total RNA was isolated followed by qPCR with PSA primers.
The test system of another data set is pY88-H4. Put plainly: Endogenous H4 Y88-phosphorylation in LNCaP cells. It counts as cell-based, human. The note with it: 16 hrs (FIG. 5b). How it is done: (§5) In FIG. 5(a), equimolar amounts of purified ACK1 and H4 proteins were incubated in the presence of DZ1-067 (100 nM) and reaction subjected to immunoblotting with pY88-H4 antibodies. […] The nuclear lysates were immunoprecipitated with pY88-H4 antibodies followed by immunoblotting with H4. Lower panel is input lysate.

The subject of the next data set is pY88-H4 marks in AR gene. Put plainly: ChIP-qPCR of pY88-H4 marks at the AR gene. It counts as cell-based, human. Particulars: cells grown in absence of androgen (FIG. 6). How it is done: In FIG. 6(a), the human AR gene and two pY88-H4 binding sites are shown. […] VCaP: *p<0.05, **p<0.05; LNCaP: *p<0.05, **p<0.05
To determine whether ACK1 modifies chromatin at AR gene locus, LNCaP and LAPC4 cells grown in the absence of androgen and were treated with DZ1-067. Chromatin immunoprecipitation (ChIP) was performed using pY88-H4 antibodies, followed by real time PCR with primers corresponding to the AR promoter, intron 2 and 3′UTR (FIG. 6a). […] These marks were also deposited at 3′UTR of the AR gene but not at the promoter region (FIG. 6b, c).

Data set [9] relates to AR and H3K4me3 at intron 2 of AR gene. Put plainly: ChIP-qPCR of AR and H3K4me3 at intron 2 of AR gene. Type of data set: cell-based, human. The note with it: absence of androgen (FIG. 7). How it is done: LNCaP cells treated with DZ1-067 and ChIP was performed using AR, H3K4me3, or IgG antibodies followed by qPCR using primers corresponding to intron 2, or control region. *p<0.05, **p<0.05, ***p<0.05, ****p<0.05.
To determine the functional and physiological relevance of pY88-H4/WDR5 interaction, and given the interaction of AR with MLL associated complex (Grasso C S, et al. The mutational landscape of lethal castration-resistant prostate cancer. Nature. 2012; 487(7406):239-43). ChIP experiments were performed to determine AR and H3K4me3 levels at the intron 2.

For data set [10], the target named is T1, ACK1. Put plainly: In vitro kinase assay, purified ACK1 and histone H4, pY88-H4 immunoblotting. It counts as biochemical. Particulars: DZ1-067 100 nM (FIG. 5a). Also on record: made in house; host or cells: insect cells. How it is done:
as §5
To assess direct binding of ACK1 to H4, in vitro kinase assay was performed using purified ACK1 and H4 (New England Biolabs). Human ACK1 was expressed in insect cells and purified to homogeneity. Immunoblotting with pY88-H4 and pTyr antibodies confirmed that indeed H4 is directly Tyr-phosphorylated by ACK1 (FIG. 5a).

The mark [11] stands for this setting: Table 1, unit inferred, (RB) = Reaction Biology, replicates listed, read-out: IC50.
Setting [12] is: Table 4, 10-dose, 10 μM ATP, read-out: Compound IC50 (M), ACK1.

T1 sequence (Q07912 whole entry): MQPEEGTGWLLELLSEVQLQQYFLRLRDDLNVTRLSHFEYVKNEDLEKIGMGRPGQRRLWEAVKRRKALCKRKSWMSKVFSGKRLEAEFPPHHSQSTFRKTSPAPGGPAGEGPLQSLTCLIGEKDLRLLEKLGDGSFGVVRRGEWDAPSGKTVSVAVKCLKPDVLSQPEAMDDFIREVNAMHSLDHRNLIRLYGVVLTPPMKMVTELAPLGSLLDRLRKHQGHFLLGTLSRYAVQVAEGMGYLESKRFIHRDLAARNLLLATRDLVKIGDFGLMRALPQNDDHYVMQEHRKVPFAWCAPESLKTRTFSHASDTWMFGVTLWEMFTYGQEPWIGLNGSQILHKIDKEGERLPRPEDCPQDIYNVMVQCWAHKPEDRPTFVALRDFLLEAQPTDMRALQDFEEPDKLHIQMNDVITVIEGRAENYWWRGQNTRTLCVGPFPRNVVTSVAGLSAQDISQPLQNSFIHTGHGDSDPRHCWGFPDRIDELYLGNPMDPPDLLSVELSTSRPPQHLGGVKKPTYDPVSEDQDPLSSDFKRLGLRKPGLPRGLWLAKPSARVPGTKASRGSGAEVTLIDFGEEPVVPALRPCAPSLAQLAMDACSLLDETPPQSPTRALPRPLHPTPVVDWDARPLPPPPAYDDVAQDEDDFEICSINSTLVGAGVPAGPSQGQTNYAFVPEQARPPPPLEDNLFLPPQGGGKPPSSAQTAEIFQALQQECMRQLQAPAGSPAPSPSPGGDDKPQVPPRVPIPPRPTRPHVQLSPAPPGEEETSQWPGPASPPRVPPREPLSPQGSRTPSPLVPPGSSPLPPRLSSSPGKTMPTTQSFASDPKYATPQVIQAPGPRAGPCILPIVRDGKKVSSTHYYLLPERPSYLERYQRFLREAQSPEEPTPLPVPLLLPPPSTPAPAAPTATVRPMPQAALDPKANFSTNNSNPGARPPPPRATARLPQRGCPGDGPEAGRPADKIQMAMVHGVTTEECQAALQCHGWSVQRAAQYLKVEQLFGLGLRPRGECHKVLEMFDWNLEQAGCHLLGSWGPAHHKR
ALK, sequence (Q9UM73 19-1620): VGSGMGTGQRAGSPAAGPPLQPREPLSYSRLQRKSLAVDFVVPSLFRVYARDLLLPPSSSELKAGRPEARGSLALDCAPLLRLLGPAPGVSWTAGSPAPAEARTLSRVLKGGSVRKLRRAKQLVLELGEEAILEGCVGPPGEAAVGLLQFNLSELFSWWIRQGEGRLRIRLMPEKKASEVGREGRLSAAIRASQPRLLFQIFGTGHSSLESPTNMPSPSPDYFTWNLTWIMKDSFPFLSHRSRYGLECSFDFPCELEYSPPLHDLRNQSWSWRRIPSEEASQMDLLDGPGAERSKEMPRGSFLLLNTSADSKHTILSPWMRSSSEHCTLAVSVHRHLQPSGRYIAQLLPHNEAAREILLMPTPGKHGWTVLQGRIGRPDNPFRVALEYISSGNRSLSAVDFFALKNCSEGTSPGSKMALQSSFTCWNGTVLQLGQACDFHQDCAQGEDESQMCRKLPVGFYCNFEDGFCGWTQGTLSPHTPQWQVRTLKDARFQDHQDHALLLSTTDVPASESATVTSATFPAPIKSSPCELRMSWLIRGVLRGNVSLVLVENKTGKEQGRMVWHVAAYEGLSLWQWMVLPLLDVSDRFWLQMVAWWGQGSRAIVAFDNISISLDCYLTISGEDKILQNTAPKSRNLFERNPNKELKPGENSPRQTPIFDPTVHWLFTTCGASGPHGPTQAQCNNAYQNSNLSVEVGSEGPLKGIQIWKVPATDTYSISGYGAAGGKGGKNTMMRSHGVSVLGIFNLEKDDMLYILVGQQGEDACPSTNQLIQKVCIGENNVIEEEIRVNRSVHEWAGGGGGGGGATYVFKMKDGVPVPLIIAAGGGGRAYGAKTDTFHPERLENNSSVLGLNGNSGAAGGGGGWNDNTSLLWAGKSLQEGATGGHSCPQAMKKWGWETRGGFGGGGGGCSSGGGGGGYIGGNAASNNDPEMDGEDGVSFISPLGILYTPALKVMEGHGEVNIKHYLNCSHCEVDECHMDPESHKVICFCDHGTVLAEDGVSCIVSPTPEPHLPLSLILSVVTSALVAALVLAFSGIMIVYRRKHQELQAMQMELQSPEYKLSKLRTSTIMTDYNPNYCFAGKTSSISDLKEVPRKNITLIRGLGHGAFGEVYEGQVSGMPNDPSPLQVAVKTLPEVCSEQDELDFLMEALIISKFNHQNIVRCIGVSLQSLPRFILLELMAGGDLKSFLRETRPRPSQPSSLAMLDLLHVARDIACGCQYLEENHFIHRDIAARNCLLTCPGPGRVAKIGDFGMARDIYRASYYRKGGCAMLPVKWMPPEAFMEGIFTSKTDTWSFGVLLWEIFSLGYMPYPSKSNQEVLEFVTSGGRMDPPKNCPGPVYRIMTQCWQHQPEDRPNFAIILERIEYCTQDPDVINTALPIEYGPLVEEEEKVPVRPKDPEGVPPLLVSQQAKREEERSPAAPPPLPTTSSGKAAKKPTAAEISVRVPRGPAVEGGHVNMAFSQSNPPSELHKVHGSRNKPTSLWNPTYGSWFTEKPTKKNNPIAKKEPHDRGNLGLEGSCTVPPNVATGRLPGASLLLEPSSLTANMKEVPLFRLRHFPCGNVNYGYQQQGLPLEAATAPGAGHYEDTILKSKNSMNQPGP
c-Src, sequence (P12931 whole entry): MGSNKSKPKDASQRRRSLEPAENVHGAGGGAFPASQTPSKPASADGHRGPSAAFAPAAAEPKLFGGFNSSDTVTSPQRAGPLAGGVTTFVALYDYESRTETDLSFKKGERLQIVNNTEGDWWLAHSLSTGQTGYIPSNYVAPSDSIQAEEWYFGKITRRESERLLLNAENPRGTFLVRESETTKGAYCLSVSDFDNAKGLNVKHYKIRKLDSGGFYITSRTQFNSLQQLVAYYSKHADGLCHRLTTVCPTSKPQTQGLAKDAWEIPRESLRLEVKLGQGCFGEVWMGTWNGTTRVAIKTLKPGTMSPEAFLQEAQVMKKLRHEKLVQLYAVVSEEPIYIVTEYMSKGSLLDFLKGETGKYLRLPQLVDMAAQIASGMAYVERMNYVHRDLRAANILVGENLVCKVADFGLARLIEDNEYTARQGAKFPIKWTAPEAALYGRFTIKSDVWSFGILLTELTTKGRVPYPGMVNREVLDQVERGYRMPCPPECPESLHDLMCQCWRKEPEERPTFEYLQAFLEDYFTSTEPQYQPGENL

Regarding `c1ccc(-c2oc3ncnc(NC[C@@H]4CCCO4)c3c2-c2ccccc2)cc1` [AIM-100], the 50% inhibitory concentration (IC50) with LNCaP cells was determined as 7000 nM; in the data set on VCaP cells it was 4000 nM. The AR protein levels result in the data set with AR [1] is “concomitant decrease in AR protein levels”. Besides, the “castration and radioresistant prostate xenograft tumor growth” value with prostate xenograft tumor was “inhibits”. Moreover, the “ACK1 activation (autophosphorylation) in EGF-treated LAPC4 cells” value at ACK1 [2] is “significant reduction in ACK1 activation”.

In the case of `COC(C)(C)CCn1nc(Nc2c(C)cccc2C)c2cnc(Nc3ccccc3)nc21` [Compound 2], at ACK1 [3], the half-maximal inhibitory concentration (IC50) is 20 nM.

For the compound `CN(C)CCOc1ccc(-c2oc3ncnc(NCC4SCCS4)c3c2-c2ccccc2)cc1` [Compound 1c], the IC50 in data set [4] was 5 nM. For the same compound, the pharmacokinetic properties result in [5] is on record as “poor pharmacokinetic properties”.

`CN1CCN(c2ccc(Nc3ncc(Cl)c(NC[C@@H]4CCCO4)n3)cc2)CC1` [DZ1-077, (S)-5-chloro-N2-(4-(4-methylpiperazin-1-yl)phenyl)-N4-((tetrahydrofuran-2-yl)methyl)pyrimidine-2,4-diamine]: on ACK1 [6], the “% Inhibition at 10 μM (ELISA)” value turned out to be 94%. Further, the inhibition at 10 µM at ACK1 [6] is 93%. Besides, the IC50 was 8.05e-08 M and 8.33e-08 M on ACK1 [7] (setting [11]); 8.33e-08 M on ACK1 [7] (setting [12]); 2.96e-07 M at ALK; 1800 nM in the data set with LNCaP cells (Homo sapiens, LNCaP); 4000 nM with VCaP cells (Homo sapiens, VCaP).

As for `CN1CCN(c2ccc(Nc3ncc(Cl)c(NC[C@H]4CCCO4)n3)cc2)CC1` [DZ1-067, (R)-5-chloro-N2-(4-(4-methylpiperazin-1-yl)phenyl)-N4-((tetrahydrofuran-2-yl)methyl)pyrimidine-2,4-diamine], at ACK1 [6], the “% Inhibition at 10 μM (ELISA)” value came to 91%. Besides, the inhibition at 10 µM on ACK1 [6] was found to be 93%. For the same compound, the 50% inhibitory concentration (IC50) at ACK1 [7] (setting [11]) is 5.6e-08 M and 5.78e-08 M and 6.05e-08 M; at ACK1 [7] (Table 3, 10-dose, 3-fold dilution from 10 μM, 10 μM ATP, read-out: Compound IC50* (M): ACK1), 6.05e-08 M; at ACK1 [7] (setting [12]), 5.78e-08 M; at c-Src, 4.38e-07 M; on ALK, 1.43e-07 M; in the data set with LNCaP cells (Homo sapiens, LNCaP) it was 1800 nM. Moreover, in the data set with VCaP cells (Homo sapiens, VCaP), the concentration for half-maximal inhibition (IC50) is 2000 nM. Further, in the data set on AR [1], the AR protein levels result is “significant downregulation the AR protein”. Besides, in the data set on AR [8], the “AR mRNA levels” value is on record as “significantly suppressed”. The “endogenous pY88-phosphorylation of H4 in LNCaP cells” value in the data set with pY88-H4 is on record as “eliminated”. Also, the “pY88-H4 epigenetic marks in AR gene (ChIP)” value in the data set on pY88-H4 marks in AR gene is “erased”. Further, in data set [9], the “AR and H3K4me3 methyl marks at intron 2 (ChIP)” value is “abolished”. For the same compound, on ACK1 [10], the “H4 Tyr-phosphorylation by purified ACK1” value was “abrogated”.
